Assay results as given in PubChem BioAssay (NCI).
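GI50: concentration for 50% inhibition of growth. Definition used: TGI = concentration required for complete inhibition of growth.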

Assays:
Assay in all cases: DTP human tumour cell line panel, 384-well format
786-0 renal = tested on: 786-0 renal
A498 renal = tested on: A498 renal
A549 NSCLC = tested on: A549 NSCLC
ACHN renal = tested on: ACHN renal
BT-549 breast = tested on: BT-549 breast
CAKI-1 renal = tested on: CAKI-1 renal
CCRF-CEM leukemia = tested on: CCRF-CEM leukemia
COLO 205 colon = tested on: COLO 205 colon
DU-145 prostate = tested on: DU-145 prostate
EKVX NSCLC = tested on: EKVX NSCLC
HCC-2998 colon = tested on: HCC-2998 colon
HCT-116 colon = tested on: HCT-116 colon
HCT-15 colon = tested on: HCT-15 colon
HL-60(TB) leukemia = tested on: HL-60(TB) leukemia
HOP-62 NSCLC = tested on: HOP-62 NSCLC
HOP-92 NSCLC = tested on: HOP-92 NSCLC
HS 578T breast = tested on: HS 578T breast
HT29 colon = tested on: HT29 colon
IGROV1 ovarian = tested on: IGROV1 ovarian
K-562 leukemia = tested on: K-562 leukemia
KM12 colon = tested on: KM12 colon
LOX IMVI melanoma = tested on: LOX IMVI melanoma
M14 melanoma = tested on: M14 melanoma
MALME-3M melanoma = tested on: MALME-3M melanoma
MCF7 breast = tested on: MCF7 breast
MDA-MB-231 breast = tested on: MDA-MB-231 breast
MDA-MB-435 melanoma = tested on: MDA-MB-435 melanoma
MDA-MB-468 breast = tested on: MDA-MB-468 breast
NCI-H226 lung = tested on: NCI-H226 lung
NCI-H23 lung = tested on: NCI-H23 lung
NCI-H322M lung = tested on: NCI-H322M lung
NCI-H460 NSCLC = tested on: NCI-H460 NSCLC
NCI-H522 lung = tested on: NCI-H522 lung
NCI/ADR-RES ovarian = tested on: NCI/ADR-RES ovarian
OVCAR-3 ovarian = tested on: OVCAR-3 ovarian
OVCAR-4 ovarian = tested on: OVCAR-4 ovarian
OVCAR-8 ovarian = tested on: OVCAR-8 ovarian
PC-3 prostate = tested on: PC-3 prostate
RPMI-8226 leukemia = tested on: RPMI-8226 leukemia
RXF 393 renal = tested on: RXF 393 renal
SF-268 CNS = tested on: SF-268 CNS
SF-295 CNS = tested on: SF-295 CNS
SF-539 CNS = tested on: SF-539 CNS
SK-MEL-28 melanoma = tested on: SK-MEL-28 melanoma
SK-MEL-5 melanoma = tested on: SK-MEL-5 melanoma
SK-OV-3 ovarian = tested on: SK-OV-3 ovarian
SN12C renal = tested on: SN12C renal
SNB-19 CNS = tested on: SNB-19 CNS
SNB-75 CNS = tested on: SNB-75 CNS
SR leukemia = tested on: SR leukemia
SW-620 colon = tested on: SW-620 colon
T-47D breast = tested on: T-47D breast
TK-10 renal = tested on: TK-10 renal
U251 glioblastoma = tested on: U251 glioblastoma
UACC-257 melanoma = tested on: UACC-257 melanoma
UACC-62 melanoma = tested on: UACC-62 melanoma
UO-31 renal = tested on: UO-31 renal

Compound: CC(C)S(=O)(=O)c1ccccc1Nc1nc(Nc2cccc(NC(=O)CN)c2)ncc1Cl
- GI50 ([…]-0 renal): 182 nM
- TGI (786-0 renal): 2080 nM
- GI50 (A498 renal): 186 nM
- TGI (A498 renal): 11400 nM
- GI50 (A549 NSCLC): 106 nM
- TGI (A549 NSCLC): 7360 nM
- GI50 (ACHN renal): 200 nM
- TGI (ACHN renal): 14700 nM
- GI50 (BT-549 breast): 49.5 nM
- TGI (BT-549 breast): 193 nM
- GI50 (CAKI-1 renal): 124 nM
- TGI (CAKI-1 renal): 866 nM
- GI50 (CCRF-CEM leukemia): < 10 nM
- TGI (CCRF-CEM leukemia): < 10 nM
- GI50 (COLO 205 colon): 19.4 nM
- TGI (COLO 205 colon): 128 nM
- GI50 (DU-145 prostate): 79.1 nM
- TGI (DU-145 prostate): 1710 nM
- GI50 (EKVX NSCLC): 150 nM
- TGI (EKVX NSCLC): 1710 nM
- GI50 (HCC-2998 colon): 187 nM
- TGI (HCC-2998 colon): 659 nM
- GI50 (HCT-116 colon): < 10 nM
- TGI (HCT-116 colon): 164 nM
- GI50 (HCT-15 colon): 152 nM
- TGI (HCT-15 colon): 1250 nM
- GI50 (HL-60(TB) leukemia): < 10 nM
- TGI (HL-60(TB) leukemia): < 10 nM
- GI50 (HOP-62 NSCLC): 39.1 nM
- TGI (HOP-62 NSCLC): 680 nM
- GI50 (HOP-92 NSCLC): 135 nM
- TGI (HOP-92 NSCLC): 463 nM
- GI50 (HS 578T breast): 45.5 nM
- TGI (HS 578T breast): 205 nM
- GI50 (HT29 colon): 184 nM
- TGI (HT29 colon): 1160 nM
- GI50 (IGROV1 ovarian): 141 nM
- TGI (IGROV1 ovarian): 383 nM
- GI50 (K-562 leukemia): 25 nM
- TGI (K-562 leukemia): 242 nM
- GI50 (KM12 colon): 19.1 nM
- TGI (KM12 colon): 474 nM
- GI50 (LOX IMVI melanoma): 25.8 nM
- TGI (LOX IMVI melanoma): 180 nM
- GI50 (M14 melanoma): 17.7 nM
- TGI (M14 melanoma): 493 nM
- GI50 (MALME-3M melanoma): 399 nM
- TGI (MALME-3M melanoma): 1560 nM
- GI50 (MCF7 breast): 30.1 nM
- TGI (MCF7 breast): 685 nM
- GI50 (MDA-MB-231 breast): 93.2 nM
- TGI (MDA-MB-231 breast): 445 nM
- GI50 (MDA-MB-435 melanoma): 168 nM
- TGI (MDA-MB-435 melanoma): 1300 nM
- GI50 (MDA-MB-468 breast): 17.4 nM
- TGI (MDA-MB-468 breast): 42 nM
- GI50 (NCI-H226 lung): 49.5 nM
- TGI (NCI-H226 lung): 354 nM
- GI50 (NCI-H23 lung): 107 nM
- TGI (NCI-H23 lung): 247 nM
- GI50 (NCI-H322M lung): 389 nM
- TGI (NCI-H322M lung): 1730 nM
- GI50 (NCI-H460 NSCLC): < 10 nM
- TGI (NCI-H460 NSCLC): 335 nM
- GI50 (NCI-H522 lung): 77.1 nM
- TGI (NCI-H522 lung): 622 nM
- GI50 (NCI/ADR-RES ovarian): 72.7 nM
- TGI (NCI/ADR-RES ovarian): 1140 nM
- GI50 (OVCAR-3 ovarian): 57.1 nM
- TGI (OVCAR-3 ovarian): 290 nM
- GI50 (OVCAR-4 ovarian): 377 nM
- TGI (OVCAR-4 ovarian): 2070 nM
- GI50 (OVCAR-8 ovarian): 87.5 nM
- TGI (OVCAR-8 ovarian): 308 nM
- GI50 (PC-3 prostate): 237 nM
- TGI (PC-3 prostate): 1490 nM
- GI50 (RPMI-8226 leukemia): 20.3 nM
- TGI (RPMI-8226 leukemia): 60.7 nM
- GI50 (RXF 393 renal): 21.4 nM
- TGI (RXF 393 renal): 167 nM
- GI50 (SF-268 CNS): 30.7 nM
- TGI (SF-268 CNS): 223 nM
- GI50 (SF-295 CNS): 89.1 nM
- TGI (SF-295 CNS): 11400 nM
- GI50 (SF-539 CNS): 47.2 nM
- TGI (SF-539 CNS): 216 nM
- GI50 (SK-MEL-28 melanoma): 217 nM
- TGI (SK-MEL-28 melanoma): 1290 nM
- GI50 (SK-MEL-5 melanoma): 56.3 nM
- TGI (SK-MEL-5 melanoma): 229 nM
- GI50 (SK-OV-3 ovarian): 290 nM
- TGI (SK-OV-3 ovarian): 7900 nM
- GI50 (SN12C renal): 149 nM
- TGI (SN12C renal): 518 nM
- GI50 (SNB-19 CNS): 141 nM
- TGI (SNB-19 CNS): 6120 nM
- GI50 (SNB-75 CNS): 23.8 nM
- TGI (SNB-75 CNS): 189 nM
- GI50 (SR leukemia): < 10 nM
- TGI (SR leukemia): < 10 nM
- GI50 (SW-620 colon): 29.2 nM
- TGI (SW-620 colon): 436 nM
- GI50 (T-47D breast): 480 nM
- TGI (T-47D breast): 3320 nM
- GI50 (TK-10 renal): 185 nM
- TGI (TK-10 renal): 2560 nM
- GI50 (U251 glioblastoma): 193 nM
- TGI (U251 glioblastoma): 1600 nM
- GI50 (UACC-257 melanoma): 324 nM
- TGI (UACC-257 melanoma): 1440 nM
- GI50 (UACC-62 melanoma): 34.8 nM
- TGI (UACC-62 melanoma): 213 nM
- GI50 (UO-31 renal): 218 nM
- TGI (UO-31 renal): 10700 nM
